Results published in patent US20260102407A1, “TREATMENT METHODS” (priority 2020, published 2026).

Legend:
FosB/ΔFosB = experiment: Western blot, serum-inducible FosB/ΔFosB expression in HMEC-1; type: cell-based, human; settings: 30 μM compound, 10% FBS 1 h
Procedure: Western blot analysis with extracts of cells treated with serum. HMEC-1 (80-90% confluency) were arrested in serum-free MCDB131 medium without EGF or hydrocortisone for 20 h. Cells were treated with 30 μM compound in serum-free MCDB131 medium for 4 h, and the medium was changed to complete medium (with 10% FBS with EGF and hydrocortisone) with 30 μM compound for 1 h. Total protein was harvested as previously described in radioimmunoprecipitation (RIPA) lysis buffer with protease inhibitors (Li, Y., et al., Int J Cardiol 220, 185-191 (2016)). Proteins were resolved on 4-20% (w/v) sodium dodecyl sulfate (SDS)-polyacrylamide gradient gels (Bio-Rad Mini-PROTEAN TGX) and transferred to Immobilon-P PVDF membranes (Millipore, USA). Membranes were blocked with 5% skim milk and incubated with rabbit monoclonal FosB (cat. 2251, 1:1000, Cell Signaling, USA), rabbit monoclonal c-Fos antibodies (cat. 2250, 1:1000, Cell Signaling, USA) at 4° C. overnight or mouse monoclonal […] antibodies (cat. A5316, 1:30000, Sigma-Aldrich) at 22° C. for 15 min then incubated with a horseradish peroxidase conjugated secondary goat anti-rabbit (cat. P0448, 1:1000, DAKO Cytomation, Denmark) or goat anti-mouse (cat. P0447, 1:1000, DAKO Cytomation, Denmark) antibodies for 1 h. Chemiluminescence was detected using the Western Lightning Chemiluminescence system (PerkinElmer, USA) and ImageQuant™ LAS 4000 biomolecular imager (GE Healthcare Life Sciences, USA). Band intensity in images generated with the LAS 4000 on automatic exposure with sensitivity/resolution setting high was quantified using NIH ImageJ.

HMEC-1 [1] = experiment: Endothelial proliferation assay using the xCELLigence system; type: cell-based, human; settings: for serum-inducible endothelial proliferation (xCELLigence cell index): HMEC-1, 5% FBS, 0.2-1 μM, 79 h
Procedure: Endothelial proliferation assay using the xCELLigence system. HMEC-1 proliferation was evaluated using the xCELLigence System (Roche, Castle Hill). Briefly, HMEC-1 (5×10^3 cells/well) were seeded in a 96-well E-plate and inserted into the xCELLigence RTCA station (Roche). Cells were serum-deprived for 24 h in MCDB131 medium which contained 10 ng/ml EGF (Sigma-Aldrich) and 1 μg/ml hydrocortisone (Sigma-Aldrich) then treated with compound (0.2-1 μM) in medium containing 5% FBS, 10 ng/ml EGF (Sigma-Aldrich) and 1 μg/ml hydrocortisone (Sigma-Aldrich). Cell growth was monitored automatically every 15 min by xCELLigence system. Cell index (CI) represents a quantitative measure of each well cell growth. In this system, CI a unitless parameter that reports impedance of electron flow caused by adherent cells.

HMEC-1 [2] = experiment: Endothelial repair following in vitro injury (scratch assay); type: cell-based, human; settings: 0.6 μM, 5% FBS, 48 h
Procedure: Endothelial repair following in vitro injury. HMEC-1 (90-100% confluency) in 6-well plates were washed with PBS, and treated with 0.6 μM compound in MCDB131 containing 5% FBS. A sterile pointed toothpick was used to scrape the cell monolayer and the wells photographed under 4× objective at 0 h and 48 h. Cell regrowth in the denuded zone was determined using Image-Pro Plus (Cybernetics, USA).

CD31 = experiment: Matrigel plug assay, CD31 staining; type: in vivo; settings: C57BL/6 mice; 2.5 mg/mouse in plug with VEGF-A165 and heparin; 7 days
Procedure: Matrigel plug assay. Matrigel (500 μl) containing VEGF-A165 (100 ng/ml), heparin (10U) and BT2 or BT3 (2.5 mg/mouse) or its vehicle (saline containing 0.01% DMSO and 0.5% Tween 80) was injected subcutaneously into the left flanks of male 8 week-old C57BL/6 mice. After 7d the mice were sacrificed by CO2 asphyxiation and the plugs carefully removed. Formalin-fixed paraffin embedded sections were prepared from Matrigel plugs for immunohistological assessment. Heat-induced epitope retrieval was applied to all deparaffinized sections (4 μm Superfrost slides) in citrate buffer, pH 6 for 5 min at 110° C. Immunostaining for all groups with a given antibody was performed simultaneously and development time was identical. […]
Slides were scanned using an Aperio ScanScope XT slide scanner (Leica Biosystems, Mt Waverley, Vic Australia) and images captured using ImageScope software (Leica Biosystems). Positive intraplug staining was assessed using Image-Pro Plus software (Cybernetics, Bethesda, MD) in 5-12 randomly selected fields of view for each plug photographed under 10× (CD31), 20× (VCAM-1) and 40× (FosB) objectives and expressed as integrated optical density (IOD, the product of calibrated intensity (optical density) and area, i.e. IOD=intensity (mean)×area) (Media Cybernetics) (Liu, H., et al., Sci Rep 6, 21319 (2016)). […]

[3] = target: T1, Recombinant human His-MEK1 (Homo sapiens, UniProt Q02750); experiment: SPR (Biacore T200) on immobilised His-MEK1; type: binding; settings: 15° C.; 20 mM HEPES, 150 mM NaCl, 5% DMSO pH 7.4
T1 construct: purchased ThermoFisher Scientific PV3303
Procedure: (§1) SPR. SPR was performed on a Biacore T200. The active and reference flow cells of a Xantec NIHMC Ni sensor chip were conditioned with 0.5M NaEDTA followed by 5 mM NiCl2 in immobilisation buffer (20 mM HEPES, 150 mM NaCl, pH 7.4). Recombinant human His-MEK1 and His-MEK2 (500 nM, ThermoFisher Scientific, cat. PV3303 and PV3615, respectively) were injected for 15 min at 10 μl min^−1 over separate active flow cells. All immobilisation was carried out at 25° C. Following immobilisation, the temperature was lowered to 15° C., and the buffer changed to 20 mM HEPES, 150 mM NaCl, 5% DMSO pH 7.4. Samples of PD98059 (2.5-30 μM in running buffer) and BT2 (1.25-15 μM) were injected at a flow rate of 30 μl min^−1 over immobilised MEK1 and MEK2. Solvent correction was applied to the data using a DMSO standard curve. Data were analysed using the Biacore T200 Evaluation software. Prior to SPR, limits of compound solubility were determined using ^1H 1D NMR.

[4] = target: T2, Recombinant human His-MEK2 (Homo sapiens, UniProt P36507); experiment: SPR (Biacore T200) on immobilised His-MEK2; type: binding; settings: 15° C.; 20 mM HEPES, 150 mM NaCl, 5% DMSO pH 7.4
T2 construct: purchased ThermoFisher Scientific PV3615
Procedure: as §1

T1 sequence (Q02750 whole entry): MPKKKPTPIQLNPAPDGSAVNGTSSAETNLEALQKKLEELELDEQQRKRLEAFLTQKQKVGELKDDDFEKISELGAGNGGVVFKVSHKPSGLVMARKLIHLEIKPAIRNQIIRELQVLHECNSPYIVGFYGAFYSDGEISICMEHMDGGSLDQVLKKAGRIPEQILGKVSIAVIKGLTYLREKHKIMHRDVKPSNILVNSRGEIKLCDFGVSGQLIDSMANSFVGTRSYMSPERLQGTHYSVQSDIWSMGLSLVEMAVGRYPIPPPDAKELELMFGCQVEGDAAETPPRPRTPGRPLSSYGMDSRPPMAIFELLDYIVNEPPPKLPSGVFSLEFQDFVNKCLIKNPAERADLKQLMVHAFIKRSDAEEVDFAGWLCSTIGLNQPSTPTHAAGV
T2 sequence (P36507 whole entry): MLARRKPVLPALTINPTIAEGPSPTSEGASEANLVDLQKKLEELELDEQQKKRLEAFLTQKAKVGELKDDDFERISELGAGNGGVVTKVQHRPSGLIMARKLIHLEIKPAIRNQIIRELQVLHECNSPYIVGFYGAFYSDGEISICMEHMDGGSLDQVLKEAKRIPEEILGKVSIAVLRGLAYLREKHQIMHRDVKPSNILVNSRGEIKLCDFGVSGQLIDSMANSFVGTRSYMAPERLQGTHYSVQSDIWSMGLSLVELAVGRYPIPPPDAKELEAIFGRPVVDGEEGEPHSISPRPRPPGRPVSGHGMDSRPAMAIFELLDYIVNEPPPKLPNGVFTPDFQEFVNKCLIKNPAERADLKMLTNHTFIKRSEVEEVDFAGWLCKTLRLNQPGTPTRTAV

Question: What does the source list for `CCOC(=O)Nc1ccc2c(c1)C(=O)N(CC)c1ccccc1O2` [BT2, (10-ethyl-11-oxo-10,11-dihydro-dibenzo[b,f][1,4]oxazepin-2-yl)-carbamic acid ethyl ester]?
Answer: serum-inducible FosB/ΔFosB expression (Western blot) (FosB/ΔFosB): blocked the inducible expression of FosB and ΔFosB; serum-inducible endothelial proliferation (xCELLigence cell index) (HMEC-1 [1]): inhibited serum-inducible proliferation at concentrations in a dose-dependent manner; biological activity of formulation after autoclaving (HMEC-1 [1]; autoclaved (121° C., 15 psi, 20 min), 4 months storage at 22° C., 0.4, 0.8 μM): biologically active; biological efficacy of stored formulation (HMEC-1 [1]; heat-treated or not, storage up to 16 months): no loss in biological efficacy; inhibition of serum-inducible endothelial proliferation by stored formulation (HMEC-1 [1]; with or without 100° C. for 10 min, 6 weeks storage, 0.4, 0.8 μM): retained its ability to inhibit serum-inducible endothelial proliferation; endothelial regrowth after mechanical injury in vitro (HMEC-1 [2]): blocked this reparative response; new blood vessel formation (CD31 staining) in Matrigel plugs (CD31): suppressed new blood vessel formation; binding to His-MEK1 (SPR) [3]: bound to His-MEK1 significantly better than to His-MEK2; binding to His-MEK2 (SPR) [4]: bound to His-MEK1 significantly better than to His-MEK2

Question: For `CCN1C(=O)c2cc(N)ccc2Oc2ccccc21` [BT3, 2-amino-10-ethyldibenzo[b,f][1,4]oxazepin-11 (10H)-one], which “serum-inducible FosB/ΔFosB expression (Western blot)” value (FosB/ΔFosB) is on record?
Answer: no inhibition

Question: And the “serum-inducible endothelial proliferation (xCELLigence cell index)” value (HMEC-1 [1])?
Answer: no inhibitory effect

Question: And the “endothelial regrowth after mechanical injury in vitro” value (HMEC-1 [2])?
Answer: no such effect

Question: What about the “new blood vessel formation (CD31 staining) in Matrigel plugs” value (CD31) of the same molecule?
Answer: no effect

Question: And the “binding to His-MEK1 (SPR)” value [3]?
Answer: no appreciable binding

Question: What about the “binding to His-MEK2 (SPR)” value [4] of the same molecule?
Answer: no appreciable binding
